Source: patent US20240116922A1, “IMIDAZO[1,2-A]PYRIDINE DERIVATIVES AS IRAK4 INHIBITORS AND THEIR USE IN THE TREATMENT OF DISEASE” (BIOGEN MA INC., priority 2020, published 2024)
Values after ≈ are worked out from the molar mass of the structure shown. Counter-ions that a name gives are not always drawn.

What was measured:
[1] = molecular target: IRAK4 (Homo sapiens (Human), UniProt Q9NWZ3); assay: IRAK4 MSD biochemical assay (2-hour 1 mM ATP); conditions: 0.1 nM IRAK4, 1 mM ATP, 2 hour at room temperature
[2] = Kinetic solubility assay (CLND), pH 6.8; assay type: physicochemical; conditions: aqueous buffer, kinetic from dmso stock; potassium phosphate buffer pH 6.8, 2% DMSO, 24 hours at ambient temperature
[3] = Kpuu assay (in vivo brain-to-plasma unbound partition); conditions: brain (unbound) versus plasma (unbound); intravenous infusion 4 to 24 h; unbound brain/plasma ratio; read-out: Brain Kpu, u
[4] = molecular target: MDR1 (Homo sapiens (Human), UniProt P08183); assay: in vitro; conditions: MDCK-MDR1
MDR1, sequence (P08183 whole entry): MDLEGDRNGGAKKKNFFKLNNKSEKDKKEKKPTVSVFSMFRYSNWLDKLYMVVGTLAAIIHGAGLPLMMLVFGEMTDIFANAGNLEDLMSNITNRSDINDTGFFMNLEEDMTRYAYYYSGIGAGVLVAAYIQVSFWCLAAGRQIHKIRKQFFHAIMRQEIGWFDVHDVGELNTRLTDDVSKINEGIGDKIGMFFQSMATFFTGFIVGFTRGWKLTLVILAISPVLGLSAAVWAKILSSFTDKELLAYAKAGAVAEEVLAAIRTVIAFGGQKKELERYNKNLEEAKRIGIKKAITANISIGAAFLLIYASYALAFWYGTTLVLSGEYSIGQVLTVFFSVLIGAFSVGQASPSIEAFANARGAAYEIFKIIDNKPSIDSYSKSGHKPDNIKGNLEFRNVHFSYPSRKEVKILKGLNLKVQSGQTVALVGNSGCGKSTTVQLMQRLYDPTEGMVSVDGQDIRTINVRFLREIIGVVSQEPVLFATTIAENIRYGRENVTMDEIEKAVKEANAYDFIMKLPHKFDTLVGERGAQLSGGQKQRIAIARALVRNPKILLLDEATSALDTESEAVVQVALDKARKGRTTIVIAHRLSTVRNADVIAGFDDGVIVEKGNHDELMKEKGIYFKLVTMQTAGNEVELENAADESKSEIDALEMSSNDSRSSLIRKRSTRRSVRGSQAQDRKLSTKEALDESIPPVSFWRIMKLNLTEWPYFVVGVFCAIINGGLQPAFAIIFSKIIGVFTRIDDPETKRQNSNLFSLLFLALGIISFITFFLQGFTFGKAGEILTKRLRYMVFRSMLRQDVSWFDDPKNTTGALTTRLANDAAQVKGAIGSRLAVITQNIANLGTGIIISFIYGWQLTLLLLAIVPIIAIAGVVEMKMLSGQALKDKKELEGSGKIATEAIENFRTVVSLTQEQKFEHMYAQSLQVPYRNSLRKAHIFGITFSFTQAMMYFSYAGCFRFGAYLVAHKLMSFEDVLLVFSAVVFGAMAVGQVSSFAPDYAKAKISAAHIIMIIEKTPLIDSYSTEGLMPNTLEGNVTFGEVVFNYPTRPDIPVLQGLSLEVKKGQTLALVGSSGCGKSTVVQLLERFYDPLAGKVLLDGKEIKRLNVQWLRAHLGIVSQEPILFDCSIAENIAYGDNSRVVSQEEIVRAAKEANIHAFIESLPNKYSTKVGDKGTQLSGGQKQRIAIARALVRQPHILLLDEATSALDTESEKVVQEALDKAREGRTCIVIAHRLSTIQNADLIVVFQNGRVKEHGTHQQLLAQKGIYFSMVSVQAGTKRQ

IRAK4, sequence (Q9NWZ3 whole entry): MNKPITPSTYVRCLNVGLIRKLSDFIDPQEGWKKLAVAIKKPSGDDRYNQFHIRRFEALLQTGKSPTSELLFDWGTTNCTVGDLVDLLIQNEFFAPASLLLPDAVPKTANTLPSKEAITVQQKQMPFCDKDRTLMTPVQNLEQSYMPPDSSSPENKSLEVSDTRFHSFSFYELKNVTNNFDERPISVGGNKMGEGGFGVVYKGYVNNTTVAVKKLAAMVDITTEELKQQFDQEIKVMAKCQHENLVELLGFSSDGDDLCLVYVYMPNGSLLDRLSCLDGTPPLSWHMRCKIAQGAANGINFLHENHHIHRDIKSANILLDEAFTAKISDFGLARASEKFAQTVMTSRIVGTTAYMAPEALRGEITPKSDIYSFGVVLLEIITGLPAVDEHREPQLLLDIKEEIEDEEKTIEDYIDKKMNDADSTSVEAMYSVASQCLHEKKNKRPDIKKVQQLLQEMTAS

| IC50 [1] | solubility kinetic at 24 h [2] | Kpuu (unbound brain-to-plasma partition coefficient) [3] | efflux ratio at 120 min, 1 μM [4] | Structure (SMILES) |
| --- | --- | --- | --- | --- |
| 0.2 nM | 7.2 µg/mL (≈ 15.1 µM) | 0 | 1.5 | Cc1cnc2c(NC(=O)c3cn4cc(C56CCC(C)(CC5)OC6)nc4nc3OC(C)C)cnn2c1 [Comparator 6B, 7-isopropoxy-2-(1-methyl-2-oxabicyclo[2.2.2]octan-4-yl)-N-(6-methylpyrazolo[1,5-a]pyrimidin-3-yl)imidazo[1,2-a]pyrimidine-6-carboxamide, reference compound] |
| 0.1 nM | 32.9 µg/mL (≈ 71.1 µM) | 0.38 | 6.1 | CC(C)Oc1cc2nc([C@]34CC[C@](C)(C3)OC4)cn2cc1C(=O)Nc1cccn(C2CC2)c1=O (single isomer, unassigned) [Example 5] |
| 2 nM | 65.8 µg/mL (≈ 141 µM) | 0.45 | 2.8 | CC(C)Oc1c(C(=O)Nc2cccn(C3CC3)c2=O)cn2cc(C34COC(C)(C3)C4)nc2c1F [Example 61, N-(1-cyclopropyl-2-oxo-1,2-dihydropyridin-3-yl)-8-fluoro-7-isopropoxy-2-(1-methyl-2-oxabicyclo[2.1.1]hexan-4-yl)imidazo[1,2-a]pyridine-6-carboxamide] |
| 0.7 nM | 79 µg/mL (≈ 164 µM) | 0.73 | 4.2 | CC(C)Oc1cc2nc([C@]34CC[C@](C)(C3)OC4)cn2cc1C(=O)Nc1cccn([C@H]2C[C@@H]2F)c1=O (single isomer, unassigned) [Example 119] |
| 0.5 nM | 58.8 µg/mL (≈ 134 µM) | 0.2 | 5.6 | CC(C)Oc1nc2nc([C@@]34CC[C@@](C)(C3)OC4)cn2cc1C(=O)Nc1cccn(C)c1=O [Comparator 4D, 7-isopropoxy-N-(1-methyl-2-oxo-1,2-dihydropyridin-3-yl)-2-((1S,4R)-1-methyl-2-oxabicyclo[2.2.1]heptan-4-yl)imidazo[1,2-a]pyrimidine-6-carboxamide, reference compound] |
| 0.4 nM | 78.6 µg/mL (≈ 164 µM) | 0.41 | 8.1 | CC[C@H](C)Oc1cc2nc(C34COC(CF)(C3)C4)cn2cc1C(=O)Nc1cccn(C2CC2)c1=O (single isomer, unassigned) [Example 15] |
| 0.2 nM | 23 µg/mL | 1.58 | 2.6 | CC(C)Oc1cc2nc([C@]34CC[C@](C)(C3)OC4)cn2cc1C(=O)Nc1cccn([C@H]2C[C@H]2C)c1=O [Example 180, 7-isopropoxy-2-((1R,4S)-1-methyl-2-oxabicyclo[2.2.1]heptan-4-yl)-N-(1-((1S,2R)-2-methylcyclopropyl)-2-oxo-1,2-dihydropyridin-3-yl)imidazo[1,2-a]pyridine-6-carboxamide trifluoroacetate] |
| 0.9 nM | 48.5 µg/mL (≈ 114 µM) | 0.2 | 1.8 | CC(C)Oc1nc2nc(C34CCC(C)(CC3)OC4)cn2cc1C(=O)Nc1ccn(C)n1 [Comparator 6C, 7-isopropoxy-N-(1-methyl-1H-pyrazol-3-yl)-2-(1-methyl-2-oxabicyclo[2.2.2]octan-4-yl)imidazo[1,2-a]pyrimidine-6-carboxamide, reference compound] |
| 1.3 nM | 48.8 µg/mL (≈ 102 µM) | 0.96 | 2.8 | CC(C)Oc1c(C(=O)Nc2cccn(C3CC3)c2=O)cn2cc([C@@]34CC[C@@](C)(C3)OC4)nc2c1F (single isomer, unassigned) [Example 67] |
| 0.2 nM | 0.3 µg/mL (≈ 0.672 µM) | 0.3 | 4.3 | Cc1cnc2c(NC(=O)c3cn4cc(C56COC(C)(C5)C6)nc4cc3OC(C)C)cnn2c1 [Comparator 1B, 7-isopropoxy-2-(1-methyl-2-oxabicyclo[2.1.1]hexan-4-yl)-N-(6-methylpyrazolo[1,5-a]pyrimidin-3-yl)imidazo[1,2-a]pyridine-6-carboxamide, reference compound] |
| 0.2 nM | 64.7 µg/mL | 0.32 | 10.8 | CC(C)Oc1nc2nc([C@]34CC[C@](C)(C3)OC4)cn2cc1C(=O)Nc1cccn([C@H]2C[C@H]2C)c1=O (single isomer, unassigned) [Example 186, trifluoroacetate] |
| 0.8 nM | 67.1 µg/mL (≈ 145 µM) | 0.48 | 5.5 | CC[C@@H](C)Oc1nc2nc(C34COC(C)(C3)C4)cn2cc1C(=O)Nc1cccn(C2CC2)c1=O (single isomer, unassigned) [Example 63] |
| 0.2 nM | 55.1 µg/mL | 0.19 | 10.9 | CC(C)Oc1nc2nc(C34CCC(C)(C3)OC4)cn2cc1C(=O)Nc1cccn([C@H]2C[C@H]2C)c1=O (stereo in doubt) [Example 187, 7-isopropoxy-2-((1R,4S)-1-methyl-2-oxabicyclo[2.2.1]heptan-4-yl)-N-(1-((1S,2R)-2-methylcyclopropyl)-2-oxo-1,2-dihydropyridin-3-yl)imidazo[1,2-a]pyrimidine-6-carboxamide trifluoroacetate] |
| 2.3 nM | 28.5 µg/mL (≈ 69.6 µM) | 0.3 | 6.3 | CC(C)Oc1cc2nc([C@@]34CC[C@@](C)(C3)OC4)cn2cc1C(=O)Nc1ccn(C)n1 (single isomer, unassigned) [Comparator 3C, reference compound] |
| 0.7 nM | 45.7 µg/mL (≈ 95.7 µM) | 0.89 | 2.9 | CC(C)Oc1nc2nc(C34COC(C)(C3)C4)cn2cc1C(=O)Nc1cccn([C@H]2CC2(C)C)c1=O (single isomer, unassigned) [Example 79] |
| 0.6 nM | 63.2 µg/mL (≈ 150 µM) | 0.9 | 8 | CC(C)Oc1cc2nc(C34COC(C)(C3)C4)cn2cc1C(=O)Nc1cccn(C)c1=O [Comparator 1D, 7-isopropoxy-N-(1-methyl-2-oxo-1,2-dihydropyridin-3-yl)-2-(1-methyl-2-oxabicyclo[2.1.1]hexan-4-yl)imidazo[1,2-a]pyridine-6-carboxamide, reference compound] |
| 0.2 nM | 57.4 µg/mL (≈ 124 µM) | 0.26 | 7.1 | CC(C)Oc1cc2nc([C@@]34CC[C@@](C)(C3)OC4)cn2cc1C(=O)Nc1cccn(C2CC2)c1=O (single isomer, unassigned) [Example 4] |
| 0.3 nM | 79.2 µg/mL (≈ 165 µM) | 0.66 | 5 | CC(C)Oc1cc2nc([C@@]34CC[C@@](CF)(C3)OC4)cn2cc1C(=O)Nc1cccn(C2CC2)c1=O (single isomer, unassigned) [Example 7] |

| Structure (SMILES) | IC50 [1] | solubility kinetic at 24 h [2] | Kpuu (unbound brain-to-plasma partition coefficient) [3] | efflux ratio at 120 min, 1 μM [4] |
| --- | --- | --- | --- | --- |
| CC(C)Oc1cc2nc(C34CCC(C)(CC3)OC4)cn2cc1C(=O)Nc1cccn(C2CC2)c1=O [Example 3, N-(1-cyclopropyl-2-oxo-1,2-dihydropyridin-3-yl)-7-isopropoxy-2-(1-methyl-2-oxabicyclo[2.2.2]octan-4-yl)imidazo[1,2-a]pyridine-6-carboxamide] | 0.2 nM | 36 µg/mL (≈ 75.5 µM) | 0.25 | 2.9 |
| CC12CC(c3cn4cc(C(=O)Nc5cccn(C6CC6)c5=O)c(OC5CCC5)cc4n3)(CO1)C2 [Example 27, 7-cyclobutoxy-N-(1-cyclopropyl-2-oxo-1,2-dihydropyridin-3-yl)-2-(1-methyl-2-oxabicyclo[2.1.1]hexan-4-yl)imidazo[1,2-a]pyridine-6-carboxamide] | 0.6 nM | 65.7 µg/mL (≈ 143 µM) | 0.42 | 4 |
| CC[C@H](C)Oc1cc2nc(C34COC(C)(C3)C4)cn2cc1C(=O)Nc1cccn(C2CC2)c1=O [Example 19, (S)-7-(sec-butoxy)-N-(1-cyclopropyl-2-oxo-1,2-dihydropyridin-3-yl)-2-(1-methyl-2-oxabicyclo[2.1.1]hexan-4-yl)imidazo[1,2-a]pyridine-6-carboxamide] | 0.5 nM | 47 µg/mL (≈ 102 µM) | 0.49 | 6 |
| C[C@@]12CC[C@@](c3cn4cc(C(=O)Nc5cccn(C6CC6)c5=O)c(OC5CCC5)cc4n3)(CO1)C2 (single isomer, unassigned) [Example 25] | 0.3 nM | 66.7 µg/mL (≈ 141 µM) | 0.36 | 3.2 |
| CC(C)Oc1cc2nc(C34COC(C)(C3)C4)cn2cc1C(=O)Nc1cccn(C2CC2)c1=O [Example 6, N-(1-cyclopropyl-2-oxo-1,2-dihydropyridin-3-yl)-7-isopropoxy-2-(1-methyl-2-oxabicyclo[2.1.1]hexan-4-yl)imidazo[1,2-a]pyridine-6-carboxamide] | 0.1 nM | 58 µg/mL (≈ 129 µM) | 0.27 | 7.9 |
| CC(C)Oc1cc2nc(C34COC(CF)(C3)C4)cn2cc1C(=O)Nc1cccn(C2CC2)c1=O [Example 9, N-(1-cyclopropyl-2-oxo-1,2-dihydropyridin-3-yl)-2-(1-(fluoromethyl)-2-oxabicyclo[2.1.1]hexan-4-yl)-7-isopropoxyimidazo[1,2-a]pyridine-6-carboxamide] | 0.4 nM | 70.6 µg/mL (≈ 151 µM) | 0.18 | 9.7 |
